# Source: patent US20230143352A1 (Humanetics Corporation, priority 2020, published 2023)
# What was measured:
# [1] = several pharmaceutically acceptable solvents; cited from earlier work
# [2] = tested on: therapy-induced pneumonitis and pulmonary fibrosis; assay: Genistein phase 1b/2a trial in NSCLC patients on chemoradiotherapy: toxicity and adverse events; type: in vivo, human
# Method: FIGS. 3A and 3B are graphs plotting pulmonary adverse event incidence rates in non-small cell lung cancer (NSCLC) clinical trials.
# The drug was added to patients' chemoradiotherapy regimens to reduce the incidence of therapy-induced pneumonitis and pulmonary fibrosis. […] Patients ingested the suspension once daily for one week prior to chemoradiotherapy, and also while on concurrent chemoradiotherapy for a total of six to eight weeks.
# [3] = tested on: NF-κB, pro-inflammatory cytokines, pro-fibrotic proteins; settings: cited from earlier work
# [4] = tested on: SARS-CoV-2; assay: K18-hACE2 transgenic mouse model of SARS-CoV-2 infection; type: in vivo
# [5] = tested on: radiation-induced fibrosis; settings: rat RiED model; treatment starting two hours after radiation exposure; cited from earlier work
# [6] = tested on: radiation-induced edema and fibrosis in the lung; assay: Mouse model of DEARE-lung: whole thoracic lung irradiation (WTLI) followed by oral genistein suspension; type: in vivo; settings: WTLI mice
# Method: FIG. 1A includes representative images of animal lungs stained with Masson's Trichrome. Images on the left are whole-lung, and images on the right are high magnification (10×). […] Error bars ±SEM.
# Animals were treated for two, four, or six weeks.
# [7] = tested on: normal lung tissue (WTLI-irradiated); assay: A549 mouse xenograft model with WTLI: radioprotection of normal lung tissue; type: in vivo, athymic CD1 nu/nu mice; settings: A549 xenograft mice
# Excerpt: FIG. 2A is an image of a mouse in which A549 cells were implanted subcutaneously, followed by treatment with 12.5 Gy of radiotherapy (RT). […] The white box indicates the path of radiation, and the circle indicates the tumor site.
# Other nonclinical studies focused on protection of the lungs in the context of cancer radiotherapy. A549 lung cancer cells were implanted subcutaneously in athymic CD1 nu/nu mice. The location of the implant was specific, so that a single dose of WTLI would hit the tumor and the normal lung tissue (FIG. 2A). Mice were then administered a nanoparticulate genistein suspension or vehicle control by daily oral gavage for seven days prior to WTLI and continuing until the end of the study.
# [8] = K18-hACE2 Mouse Study 2, oral BID 7 d
# [9] = daily oral gavage from 7 days before WTLI to end of study
compound,measurement,setting,value
"O=c1c(-c2ccc(O)cc2)coc2cc(O)cc(O)c12 [genistein, 5,7-dihydroxy-3-(4-hydroxyphenyl)-4H-chromen-4-one]",solubility,[1],low to virtually no solubility
same,patients who developed pulmonary fibrosis,"[2]; 21 NSCLC patients treated, to date, 9% in historical study",none
same,occurrences of pulmonary fibrosis one year later,"[2]; NSCLC patients, one year later",no occurrences of pulmonary fibrosis
same,severity of dyspnea,"[2]; NSCLC patients, vs historical trial",less severe
same,"expression of NF-κB, pro-inflammatory cytokines (IL-1, IL-6, TNFα) and pro-fibrotic proteins (TGFβ, MMP-2, MMP-9, LDH)",[3],reduce expression
same,lung pathology,[4]; [8],improved lung pathology
same,pro-inflammatory cytokine expression,[4]; [8],reduced pro-inflammatory cytokine expression
same,survival,"[4]; mouse, in vivo, po",increase in survival
same,fibrosis,[5],significantly reduced fibrosis
same,"immune infiltrate, edema and fibrosis of the lungs (histopathology and wet lung weight)","[6]; daily from 24 hours after irradiation for two, four or six weeks, vs controls","significantly less immune infiltrate, edema, and fibrosis of the lungs"
same,"levels of fibrosis (Masson's Trichrome staining, Ashcroft scoring)","[6]; treatment started 24, 72 or 120 hours (within five days) after radiation",reduction in pulmonary fibrosis
same,wet lung weight (indicator of pneumonitis),"[7]; WTLI, vs vehicle",reduced wet lung weight
same,"congestion and cellular infiltrate, H&E",[7]; [9],reduced congestion and minimal cellular infiltrate
same,"normal lung tissue remodeling (thickening of the septal wall), H&E",[7]; [9],marked reduction in normal lung tissue remodeling
